# Experiments:
# Assay type in all cases: cell-based, human
# SNB-19 = test: NCI in vitro cancer screen, CNS Cancer; settings: SNB-19
# NCI-H322M = test: NCI in vitro cancer screen, Non-Small Cell Lung Cancer
# UACC-62 = test: NCI in vitro cancer screen, Melanoma; settings: UACC-62
# PC-3 = test: NCI in vitro cancer screen, Prostate Cancer; settings: PC-3
# U251 = test: NCI in vitro cancer screen, CNS Cancer; settings: U251
# K-562 = test: NCI in vitro cancer screen, Leukemia; settings: K-562
# SK-MEL-5 = test: NCI in vitro cancer screen, Melanoma; settings: SK-MEL-5
# MDA-MB-468 = test: NCI in vitro cancer screen, Breast Cancer; settings: MDA-MB-468
# SK-MEL-28 = test: NCI in vitro cancer screen, Melanoma; settings: SK-MEL-28
# ACHN = test: NCI in vitro cancer screen, Renal Cancer
# SK-OV-3 = test: NCI in vitro cancer screen, Ovarian Cancer; settings: SK-OV-3
# A549/ATCC = test: NCI in vitro cancer screen, Non-Small Cell Lung Cancer
# SW-620 = test: NCI in vitro cancer screen, Colon Cancer; settings: SW-620
# DU-145 = test: NCI in vitro cancer screen, Prostate Cancer; settings: DU-145
# OVCAR-3 = test: NCI in vitro cancer screen, Ovarian Cancer; settings: OVCAR-3
# MDA-MB-435 = test: NCI in vitro cancer screen, Melanoma; settings: MDA-MB-435
# SNB-75 = test: NCI in vitro cancer screen, CNS Cancer; settings: SNB-75
# SK-MEL-2 = test: NCI in vitro cancer screen, Melanoma; settings: SK-MEL-2
# SF-295 = test: NCI in vitro cancer screen, CNS Cancer; settings: SF-295
# NCI-H23 = test: NCI in vitro cancer screen, Non-Small Cell Lung Cancer; settings: NCI-H23
# CCRF-CEM = test: NCI in vitro cancer screen, Leukemia
# KM12 = test: NCI in vitro cancer screen, Colon Cancer; settings: KM12
# OVCAR-8 = test: NCI in vitro cancer screen, Ovarian Cancer; settings: OVCAR-8
# UO-31 = test: NCI in vitro cancer screen, Renal Cancer; settings: UO-31
# HT29 = test: NCI in vitro cancer screen, Colon Cancer; settings: HT29
# NCI-H460 = test: NCI in vitro cancer screen, Non-Small Cell Lung Cancer; settings: NCI-H460
# TK-10 = test: NCI in vitro cancer screen, Renal Cancer; settings: TK-10
# OVCAR-5 = test: NCI in vitro cancer screen, Ovarian Cancer; settings: OVCAR-5
# T-47D = test: NCI in vitro cancer screen, Breast Cancer
# RXF-393 = test: NCI in vitro cancer screen, Renal Cancer; settings: RXF-393
# MCF7 = test: NCI in vitro cancer screen, Breast Cancer; settings: MCF7
# [1] = Homo sapiens, read-out: LC50 (the source's name)
smiles,measurement,setting,value
"CC(C)=CCOc1cc(O)cc(/C=C/c2ccc(O)c(O)c2)c1 [USYDS4, (E)-3-(3-methyl-2-butenyloxy)-3′,4′,5-trihydroxystilbene]",GI50,SNB-19; Homo sapiens,10.5 µM
same,CC50,SNB-19; [1],63.8 µM
same,TGI,SNB-19,25.8 µM
same,TGI,NCI-H322M,54.7 µM
same,GI50,NCI-H322M; Homo sapiens,12.8 µM
same,LC50 (50% lethal concentration),NCI-H322M; Homo sapiens,> 100 µM
same,GI50,UACC-62; Homo sapiens,4.53 µM
same,CC50,UACC-62; [1],44.4 µM
same,TGI,UACC-62,16.8 µM
same,GI50,PC-3; Homo sapiens,4.47 µM
same,CC50,PC-3; [1],87.9 µM
same,TGI,PC-3,22.0 µM
same,GI50,"U251; Homo sapiens, U-251",3.67 µM
same,CC50,"U251; Homo sapiens, U-251, read-out: LC50 (the source's name)",45.5 µM
same,TGI,U251,15.6 µM
same,GI50,"K-562; Homo sapiens, K562",2.35 µM
same,CC50,"K-562; Homo sapiens, K562, read-out: LC50 (the source's name)",> 100 µM
same,TGI,K-562,>100 µM
same,GI50,SK-MEL-5; Homo sapiens,1.42 µM
same,CC50,SK-MEL-5; [1],30 µM
same,TGI,SK-MEL-5,8.35 µM
same,GI50,MDA-MB-468; Homo sapiens,2.53 µM
same,CC50,MDA-MB-468; [1],55.1 µM
same,TGI,MDA-MB-468,9.51 µM
same,GI50,SK-MEL-28; Homo sapiens,9.18 µM
same,LC50,SK-MEL-28; Homo sapiens,77.9 µM
same,TGI,SK-MEL-28,27.6 µM
same,TGI,ACHN,>100 µM
same,GI50,ACHN; Homo sapiens,4.57 µM
same,CC50,ACHN; [1],> 100 µM
same,GI50,SK-OV-3; Homo sapiens,8.91 µM
same,CC50,SK-OV-3; [1],> 100 µM
same,TGI,SK-OV-3,57.0 µM
same,TGI,A549/ATCC,25.6 µM
same,GI50,A549/ATCC; Homo sapiens,4.74 µM
same,CC50,A549/ATCC; [1],> 100 µM
same,GI50,SW-620; Homo sapiens,2.97 µM
same,CC50,SW-620; [1],46.5 µM
same,TGI,SW-620,16.6 µM
same,TGI,DU-145,44.6 µM
same,GI50,DU-145; Homo sapiens,6.37 µM
same,CC50,DU-145; [1],> 100 µM
same,GI50,OVCAR-3; Homo sapiens,3.98 µM
same,CC50,OVCAR-3; [1],44.9 µM
same,TGI,OVCAR-3,15.0 µM
same,GI50,MDA-MB-435; Homo sapiens,0.36 µM
same,CC50,MDA-MB-435; [1],> 100 µM
same,TGI,MDA-MB-435,21.6 µM
same,GI50,SNB-75; Homo sapiens,1.77 µM
same,CC50,SNB-75; [1],48.3 µM
same,TGI,SNB-75,9.11 µM
same,GI50,SK-MEL-2; Homo sapiens,2.18 µM
same,LC50,SK-MEL-2; Homo sapiens,31 µM
same,TGI,SK-MEL-2,6.57 µM
same,GI50,SF-295; Homo sapiens,7.29 µM
same,CC50,SF-295; [1],70.9 µM
same,TGI,SF-295,24.3 µM
same,GI50,NCI-H23; Homo sapiens,3.42 µM
same,LC50,NCI-H23; Homo sapiens,81.9 µM
same,TGI,NCI-H23,20.8 µM
same,TGI,CCRF-CEM,>100 µM
same,GI50,CCRF-CEM; Homo sapiens,3.5 µM
same,CC50,CCRF-CEM; [1],> 100 µM
same,GI50,KM12; Homo sapiens,3.27 µM
same,CC50,KM12; [1],46.5 µM
same,TGI,KM12,14.2 µM
same,GI50,OVCAR-8; Homo sapiens,4.94 µM
same,CC50,OVCAR-8; [1],> 100 µM
same,TGI,OVCAR-8,31.1 µM
same,GI50,UO-31; Homo sapiens,3.31 µM
same,CC50,UO-31; [1],66.4 µM
same,TGI,UO-31,20.7 µM
same,TGI,HT29,32.5 µM
same,GI50,"HT29; Homo sapiens, HT-29",16.3 µM
same,CC50,"HT29; Homo sapiens, HT-29, read-out: LC50 (the source's name)",64.7 µM
same,GI50,NCI-H460; Homo sapiens,3.65 µM
same,CC50,NCI-H460; [1],> 100 µM
same,TGI,NCI-H460,20.3 µM
same,GI50,TK-10; Homo sapiens,3.87 µM
same,LC50,TK-10; Homo sapiens,> 100 µM
same,TGI,TK-10,9.66 µM
same,GI50,OVCAR-5; Homo sapiens,15.9 µM
same,CC50,OVCAR-5; [1],> 100 µM
same,TGI,OVCAR-5,51.4 µM
same,TGI,T-47D,6.93 µM
same,GI50,"T-47D; Homo sapiens, T47D",2.13 µM
same,CC50,"T-47D; Homo sapiens, T47D, read-out: LC50 (the source's name)",> 100 µM
same,GI50,RXF-393; Homo sapiens,2.17 µM
same,CC50,RXF-393; [1],46 µM
same,TGI,RXF-393,15.3 µM
same,GI50,MCF7; Homo sapiens,2.57 µM
same,CC50,MCF7; [1],51.1 µM
same,TGI,MCF7,18.2 µM
